Experimental data reported in patent US11226337B2, “Chemoproteomic profiling of protein electrophilic and oxidative post-translational modifications” (Zenagem, LLC, priority 2017, dated 2022).

Columns and labels:
Test in all cases: SILAC RP-ABPP
Type in all cases: cell-based
[1] = target: T1, CPD Carboxypeptidase D (O75976) (Homo sapiens, UniProt O75976); conditions: SILAC H/L, MDA-MB-231
T1 construct: In Situ Labelling of Cells with Hydrazine Probes for MS Experiments; endogenous in cells; host or cells: HEK293T and/or MDA-MB-231
Outline: (§1)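 Heavy SILAC HEK293T or MDA-MB-231 cells were treated with a clickable hydrazine probe; light cells received the non-clickable analogue (enrichment) or the probe plus 10-fold excess non-clickable competitor (competition). Mixed proteomes underwent CuAAC with 100 μM biotin-azide for 1 h. Heavy:light ratios were taken as median peptide ratios (≥3 peptides) averaged over ≥3 replicates.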

[2] = target: T2, MMP14 Matrix metalloproteinase14 (P50281) (Homo sapiens, UniProt P50281); conditions: SILAC H/L, MDA-MB-231
T2 construct: endogenous in cells; host or cells: HEK293T or MDA-MB-231
Outline: as §1

[3] = target: T3, PTGR2 Prostaglandin reductase 2 (Q8N8N7) (Homo sapiens, UniProt Q8N8N7); conditions: SILAC H/L, MDA-MB-231
T3 construct: endogenous in cells; host or cells: HEK293T or MDA-MB-231
Outline: as §1

[4] = target: T4, ASAH1 Acid ceramidase (Q13510) (Homo sapiens, UniProt Q13510); conditions: SILAC H/L, MDA-MB-231
T4 construct: endogenous in cells; host or cells: HEK293T or MDA-MB-231
Outline: as §1

[5] = target: T5, HMOX2 Heme oxygenase 2 (P30519) (Homo sapiens, UniProt P30519); conditions: SILAC H/L, HEK293T
T5 construct: In Situ Labelling of Cells with Hydrazine Probes for MS Experiments; endogenous in cells; host or cells: HEK293T and/or MDA-MB-231
Outline: as §1

[6] = target: T6, KDM1A Lysinespecific histone demethylase 1A (O60341) (Homo sapiens, UniProt O60341); conditions: SILAC H/L, HEK293T
T6 construct: In Situ Labelling of Cells with Hydrazine Probes for MS Experiments; endogenous in cells; host or cells: HEK293T and/or MDA-MB-231
Outline: as §1

[7] = target: T7, PXDN Peroxidasin homolog (Q92626) (Homo sapiens, UniProt Q92626); conditions: SILAC H/L, MDA-MB-231
T7 construct: In Situ Labelling of Cells with Hydrazine Probes for MS Experiments; endogenous in cells; host or cells: HEK293T and/or MDA-MB-231
Outline: as §1

[8] = target: T8, PRCP Lysosomal ProX carboxypeptidase (P42785) (Homo sapiens, UniProt P42785); conditions: SILAC H/L, MDA-MB-231
T8 construct: endogenous in cells; host or cells: HEK293T or MDA-MB-231
Outline: as §1

[9] = target: T9, BCAT1 Branchedchainaminoacid (P54687) (Homo sapiens, UniProt P54687); conditions: SILAC H/L, MDA-MB-231
T9 construct: endogenous in cells; host or cells: HEK293T or MDA-MB-231
Outline: as §1

[10] = target: T10, PHYHD1 PhytanoylCoA dioxygenase (Q5SRE7) (Homo sapiens, UniProt Q5SRE7); conditions: SILAC H/L, MDA-MB-231
T10 construct: In Situ Labelling of Cells with Hydrazine Probes for MS Experiments; endogenous in cells; host or cells: HEK293T and/or MDA-MB-231
Outline: as §1

[11] = target: T11, ERAP1 Endoplasmic reticulum aminopeptidase (Q9NZ08) (Homo sapiens, UniProt Q9NZ08); conditions: SILAC H/L, MDA-MB-231
T11 construct: endogenous in cells; host or cells: HEK293T or MDA-MB-231
Outline: as §1

[12] = target: T12, RRM2 Ribonucleosidediphosphate reductase (P31350) (Homo sapiens, UniProt P31350); conditions: SILAC H/L, HEK293T
T12 construct: In Situ Labelling of Cells with Hydrazine Probes for MS Experiments; endogenous in cells; host or cells: HEK293T and/or MDA-MB-231
Outline: as §1

[13] = target: T13, SELENBP1 Seleniumbinding protein 1 (Q13228) (Homo sapiens, UniProt Q13228); conditions: SILAC H/L, MDA-MB-231
T13 construct: endogenous in cells; host or cells: HEK293T or MDA-MB-231
Outline: as §1

[14] = target: T14, FADS1 Fatty acid desaturase 1 (O60427) (Homo sapiens, UniProt O60427); conditions: SILAC H/L, HEK293T
T14 construct: In Situ Labelling of Cells with Hydrazine Probes for MS Experiments; endogenous in cells; host or cells: HEK293T and/or MDA-MB-231
Outline: as §1

T3 sequence (Q8N8N7 whole entry): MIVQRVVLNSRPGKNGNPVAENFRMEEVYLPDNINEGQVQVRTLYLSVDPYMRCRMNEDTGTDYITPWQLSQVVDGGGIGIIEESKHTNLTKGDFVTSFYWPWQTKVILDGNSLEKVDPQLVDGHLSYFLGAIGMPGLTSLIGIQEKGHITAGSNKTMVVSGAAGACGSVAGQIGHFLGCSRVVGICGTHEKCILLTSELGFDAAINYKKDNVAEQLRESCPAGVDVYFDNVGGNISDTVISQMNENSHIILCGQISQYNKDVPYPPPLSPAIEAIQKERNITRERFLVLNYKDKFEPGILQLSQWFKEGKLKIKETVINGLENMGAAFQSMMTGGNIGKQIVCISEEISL
T14 sequence (O60427 whole entry): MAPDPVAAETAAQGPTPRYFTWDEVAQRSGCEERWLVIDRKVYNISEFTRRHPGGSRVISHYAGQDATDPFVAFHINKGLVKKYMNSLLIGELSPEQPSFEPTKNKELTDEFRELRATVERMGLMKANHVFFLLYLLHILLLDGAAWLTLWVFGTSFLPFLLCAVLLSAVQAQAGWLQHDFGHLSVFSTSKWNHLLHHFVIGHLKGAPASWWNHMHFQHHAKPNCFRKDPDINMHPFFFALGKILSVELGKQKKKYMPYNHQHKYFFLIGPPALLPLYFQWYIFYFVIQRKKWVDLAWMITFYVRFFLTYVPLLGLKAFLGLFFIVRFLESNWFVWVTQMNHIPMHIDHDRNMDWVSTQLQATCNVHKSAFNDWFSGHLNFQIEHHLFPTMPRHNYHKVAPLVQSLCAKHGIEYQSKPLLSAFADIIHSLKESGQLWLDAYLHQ
T7 sequence (Q92626 27-1479): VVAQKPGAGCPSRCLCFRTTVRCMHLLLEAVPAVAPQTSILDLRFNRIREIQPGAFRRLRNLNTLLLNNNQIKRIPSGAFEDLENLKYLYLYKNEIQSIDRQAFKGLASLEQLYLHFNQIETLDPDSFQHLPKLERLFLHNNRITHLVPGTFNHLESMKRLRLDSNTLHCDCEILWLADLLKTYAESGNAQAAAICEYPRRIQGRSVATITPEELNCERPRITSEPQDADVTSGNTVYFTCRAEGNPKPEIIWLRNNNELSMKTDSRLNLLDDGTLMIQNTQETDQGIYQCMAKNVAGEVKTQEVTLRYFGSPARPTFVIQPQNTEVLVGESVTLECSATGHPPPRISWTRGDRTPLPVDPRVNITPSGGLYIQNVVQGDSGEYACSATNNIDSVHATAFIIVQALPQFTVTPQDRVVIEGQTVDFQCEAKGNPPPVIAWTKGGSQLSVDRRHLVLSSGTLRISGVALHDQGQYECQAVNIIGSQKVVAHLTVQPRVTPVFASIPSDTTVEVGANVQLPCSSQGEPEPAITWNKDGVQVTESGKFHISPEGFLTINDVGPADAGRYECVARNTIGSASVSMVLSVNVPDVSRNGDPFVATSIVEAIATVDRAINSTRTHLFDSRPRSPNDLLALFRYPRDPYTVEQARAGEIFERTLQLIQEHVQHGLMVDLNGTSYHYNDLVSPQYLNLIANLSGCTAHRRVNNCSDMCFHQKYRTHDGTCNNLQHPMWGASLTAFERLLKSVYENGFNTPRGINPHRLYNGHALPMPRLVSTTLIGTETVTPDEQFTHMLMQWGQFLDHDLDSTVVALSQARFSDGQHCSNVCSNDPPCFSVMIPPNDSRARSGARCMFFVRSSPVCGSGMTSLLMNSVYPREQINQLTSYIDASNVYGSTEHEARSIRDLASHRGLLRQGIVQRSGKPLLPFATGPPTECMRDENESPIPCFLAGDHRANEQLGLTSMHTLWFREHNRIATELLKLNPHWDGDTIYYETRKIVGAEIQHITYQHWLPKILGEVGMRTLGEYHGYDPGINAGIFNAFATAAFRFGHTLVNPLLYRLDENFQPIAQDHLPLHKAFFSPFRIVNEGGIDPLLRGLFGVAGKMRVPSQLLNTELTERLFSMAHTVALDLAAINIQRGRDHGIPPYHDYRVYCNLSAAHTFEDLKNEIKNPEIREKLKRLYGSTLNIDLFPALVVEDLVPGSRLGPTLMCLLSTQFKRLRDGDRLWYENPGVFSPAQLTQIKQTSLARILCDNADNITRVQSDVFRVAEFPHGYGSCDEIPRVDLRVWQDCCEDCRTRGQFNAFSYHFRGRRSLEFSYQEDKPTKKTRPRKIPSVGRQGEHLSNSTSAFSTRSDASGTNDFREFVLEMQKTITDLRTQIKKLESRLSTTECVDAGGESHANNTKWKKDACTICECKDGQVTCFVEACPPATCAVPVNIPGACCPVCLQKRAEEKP
T8 sequence (P42785 46-496): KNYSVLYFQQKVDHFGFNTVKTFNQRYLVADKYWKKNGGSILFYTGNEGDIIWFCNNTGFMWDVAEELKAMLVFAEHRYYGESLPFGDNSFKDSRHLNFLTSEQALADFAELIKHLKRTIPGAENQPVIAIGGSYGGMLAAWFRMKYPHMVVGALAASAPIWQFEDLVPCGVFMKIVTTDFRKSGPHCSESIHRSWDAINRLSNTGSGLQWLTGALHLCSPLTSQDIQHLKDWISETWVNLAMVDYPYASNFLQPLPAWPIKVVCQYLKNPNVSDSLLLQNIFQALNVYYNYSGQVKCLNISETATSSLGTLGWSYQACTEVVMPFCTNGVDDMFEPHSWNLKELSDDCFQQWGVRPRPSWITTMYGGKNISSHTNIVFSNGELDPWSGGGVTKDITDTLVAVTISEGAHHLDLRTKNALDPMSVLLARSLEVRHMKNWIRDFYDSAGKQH
T13 sequence (Q13228 whole entry): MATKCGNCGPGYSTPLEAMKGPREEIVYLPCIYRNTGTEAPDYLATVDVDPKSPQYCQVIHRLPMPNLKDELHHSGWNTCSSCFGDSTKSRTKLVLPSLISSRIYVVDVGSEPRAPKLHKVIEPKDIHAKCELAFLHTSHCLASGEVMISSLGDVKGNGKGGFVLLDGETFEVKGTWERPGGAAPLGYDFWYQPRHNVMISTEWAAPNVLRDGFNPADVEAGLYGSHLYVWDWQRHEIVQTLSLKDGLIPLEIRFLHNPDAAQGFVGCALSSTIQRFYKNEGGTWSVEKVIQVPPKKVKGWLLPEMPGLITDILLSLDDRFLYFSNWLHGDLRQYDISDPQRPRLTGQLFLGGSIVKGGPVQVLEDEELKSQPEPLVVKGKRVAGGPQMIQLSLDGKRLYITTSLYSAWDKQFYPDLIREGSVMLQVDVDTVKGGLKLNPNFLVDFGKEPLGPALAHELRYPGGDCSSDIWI
T9 sequence (P54687 whole entry): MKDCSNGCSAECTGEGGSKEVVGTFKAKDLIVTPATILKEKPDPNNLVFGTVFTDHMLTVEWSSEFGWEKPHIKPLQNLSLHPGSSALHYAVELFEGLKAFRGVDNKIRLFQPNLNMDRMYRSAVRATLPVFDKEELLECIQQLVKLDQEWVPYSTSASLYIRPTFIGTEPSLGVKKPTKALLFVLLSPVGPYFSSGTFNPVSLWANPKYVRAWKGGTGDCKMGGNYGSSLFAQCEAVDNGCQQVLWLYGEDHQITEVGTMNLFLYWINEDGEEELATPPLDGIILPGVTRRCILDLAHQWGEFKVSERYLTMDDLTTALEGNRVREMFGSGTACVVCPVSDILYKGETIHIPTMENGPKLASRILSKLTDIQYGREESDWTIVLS
T5 sequence (P30519 whole entry): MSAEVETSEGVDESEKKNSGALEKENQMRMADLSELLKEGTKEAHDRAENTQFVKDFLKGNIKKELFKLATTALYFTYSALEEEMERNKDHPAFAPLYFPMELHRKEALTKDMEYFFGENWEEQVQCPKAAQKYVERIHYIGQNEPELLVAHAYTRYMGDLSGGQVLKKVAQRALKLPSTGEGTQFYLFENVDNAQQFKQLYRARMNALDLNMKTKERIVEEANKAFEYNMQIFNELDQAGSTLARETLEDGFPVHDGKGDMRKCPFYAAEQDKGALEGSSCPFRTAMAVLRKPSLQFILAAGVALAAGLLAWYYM
T11 sequence (Q9NZ08 whole entry): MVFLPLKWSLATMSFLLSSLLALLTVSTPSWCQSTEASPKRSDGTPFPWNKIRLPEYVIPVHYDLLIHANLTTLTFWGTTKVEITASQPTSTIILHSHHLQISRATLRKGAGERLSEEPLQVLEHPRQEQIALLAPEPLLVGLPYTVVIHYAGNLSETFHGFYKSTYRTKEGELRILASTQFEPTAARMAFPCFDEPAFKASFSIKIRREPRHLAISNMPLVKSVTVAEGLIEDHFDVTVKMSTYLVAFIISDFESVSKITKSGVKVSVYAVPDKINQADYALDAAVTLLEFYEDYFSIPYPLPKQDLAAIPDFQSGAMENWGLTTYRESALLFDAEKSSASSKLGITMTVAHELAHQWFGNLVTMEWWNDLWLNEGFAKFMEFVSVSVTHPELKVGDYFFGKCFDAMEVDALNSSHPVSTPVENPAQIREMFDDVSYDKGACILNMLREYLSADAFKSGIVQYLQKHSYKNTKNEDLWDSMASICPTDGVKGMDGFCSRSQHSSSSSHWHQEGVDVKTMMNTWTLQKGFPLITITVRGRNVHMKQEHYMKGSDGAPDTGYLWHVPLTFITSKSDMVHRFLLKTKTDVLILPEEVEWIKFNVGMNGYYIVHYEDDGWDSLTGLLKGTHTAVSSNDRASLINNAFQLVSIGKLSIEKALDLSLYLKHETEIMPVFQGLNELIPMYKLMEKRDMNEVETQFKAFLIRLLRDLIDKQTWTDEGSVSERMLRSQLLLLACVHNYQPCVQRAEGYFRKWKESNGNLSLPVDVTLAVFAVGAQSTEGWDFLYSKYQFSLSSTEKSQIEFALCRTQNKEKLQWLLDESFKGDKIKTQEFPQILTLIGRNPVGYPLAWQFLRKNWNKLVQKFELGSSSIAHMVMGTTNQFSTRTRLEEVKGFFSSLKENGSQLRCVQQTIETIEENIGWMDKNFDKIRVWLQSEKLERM

- enrichment ratioavg ([1]; probe 2 1 mM 0.5 h vs probe 4): 20
- competition ratioavg ([1]; probe 2 vs probe 2+10x probe 4): 15
- enrichment ratioavg ([2]; probe 2 1 mM 0.5 h vs probe 4): 10
- competition ratioavg ([2]; probe 2 vs probe 2+10x probe 4): 3
- enrichment ratioavg ([3]; probe 2 1 mM 0.5 h vs probe 4): 15
- competition ratioavg ([3]; probe 2 vs probe 2+10x probe 4): 1
- enrichment ratioavg ([4]; probe 2 1 mM 0.5 h vs probe 4): 20
- competition ratioavg ([4]; probe 2 vs probe 2+10x probe 4): 4
- enrichment ratioavg ([5]; probe 2 1 mM 0.5 h vs probe 4): 20
- competition ratioavg ([5]; probe 2 vs probe 2+10x probe 4): 5
- enrichment ratioavg ([6]; probe 2 1 mM 0.5 h vs probe 4): 20
- competition ratioavg ([6]; probe 2 vs probe 2+10x probe 4): 2
- enrichment ratioavg ([7]; probe 2 1 mM 0.5 h vs probe 4): 20
- competition ratioavg ([7]; probe 2 vs probe 2+10x probe 4): 5
- enrichment ratioavg ([8]; probe 2 1 mM 0.5 h vs probe 4): 15
- competition ratioavg ([8]; probe 2 vs probe 2+10x probe 4): 4
- enrichment ratioavg ([9]; probe 2 1 mM 0.5 h vs probe 4): 20
- competition ratioavg ([9]; probe 2 vs probe 2+10x probe 4): 2
- enrichment ratioavg ([10]; probe 2 1 mM 0.5 h vs probe 4): 14
- competition ratioavg ([10]; probe 2 vs probe 2+10x probe 4): 5
- enrichment ratioavg ([11]; probe 2 1 mM 0.5 h vs probe 4): 8
- competition ratioavg ([11]; probe 2 vs probe 2+10x probe 4): 4
- enrichment ratioavg ([12]; probe 2 1 mM 0.5 h vs probe 4): 13
- competition ratioavg ([12]; probe 2 vs probe 2+10x probe 4): 1
- enrichment ratioavg ([13]; probe 2 1 mM 0.5 h vs probe 4): 20
- competition ratioavg ([13]; probe 2 vs probe 2+10x probe 4): 3
- enrichment ratioavg ([14]; probe 2 1 mM 0.5 h vs probe 4): 20
- competition ratioavg ([14]; probe 2 vs probe 2+10x probe 4): 4
Compound: C#CCCNC(=O)c1ccc(NN)cc1.Cl [probe 2, N-(but-3-yn-1-yl)-4-hydrazinylbenzamide hydrochloride]
